As a reminder, the inhibition is the change of the read-out against control, counted positive when it falls.

Each structure is given as a SMILES string. A value given as a limit tells only on which side of the number the result lay.

Here are results for 42 compounds from patent US9365556B2, “3,5-diaminopyrazole kinase inhibitors” (Axikin Pharmaceuticals, Inc., priority 2012, dated 2016).

The target in one assay is T1, kinase domain protein of RC kinase (Homo sapiens, UniProt Q56UN5).
T1 sequence (Q56UN5 1061-1324 limits assumed): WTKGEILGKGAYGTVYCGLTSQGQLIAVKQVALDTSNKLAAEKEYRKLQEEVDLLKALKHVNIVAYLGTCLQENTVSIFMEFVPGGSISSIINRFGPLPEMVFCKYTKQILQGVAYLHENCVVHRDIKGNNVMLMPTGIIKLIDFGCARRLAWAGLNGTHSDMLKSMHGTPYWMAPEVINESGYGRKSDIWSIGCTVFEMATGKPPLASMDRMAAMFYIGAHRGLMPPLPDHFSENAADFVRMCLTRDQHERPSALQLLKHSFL
The assay can be described thus: Enzymatic assay for kinase inhibitory activity (Crebtide substrate, LANCE read-out). The format is biochemical. The following applies: compound at 1 μM. The method, then: Solutions of a test compound, Crebtide (a substrate), a kinase, and ATP were prepared using 1×MAPK Buffer (50 mM HEPES, 1 mM EGTA, […], 10 mM MgCl2, 2 mM DTT, and 0.01% Tween 20).
To each well, the test compound (1 μL) was first added (in duplicate) to reach a final concentration of 1 μM or 1×IC50 of the compound. The kinase (5 μl) was then added to each well to reach a final concentration of […] for the kinase domain or […] for the full-length domain. Each plate included a positive and negative controls in duplicate wells. Crebtide (2.5 μL) was then added to each well in duplicate to reach a final concentration of 50 nM. If the full-length kinase was used, the plates were incubated for 45 min at room temperature before proceeding further. ATP (2.5 μL) was added to each well to reach a final concentration of 1 μM for the kinase domain and 3 μM for the full-length.
After the addition of ATP, the plates were incubated for 45 min at room temperature. During the incubation, an EDTA solution (40 mM) and anti-Crebtide ([…]) were prepared. Additionally, a detection buffer stock solution was diluted ten fold before use.
After the incubation, the anti-Crebtide (5 μL) and EDTA (5 μL) were added to each well to reach their final concentrations of […] and 10 mM, respectively. The plates were allowed to develop at room temperature for 45 min. The plates were then read at 665 nm and 615 nm using Perkin Elmer Lance machine.
The biological results of inhibition of the kinase domain protein of RC kinase are summarized in Tables 2 and 3, wherein A represents at least 50% inhibition of the RC kinase activity at 1 μM; B represents no greater than 50% but at least 20% inhibition of the RC kinase activity at 1 μM; C represents no greater than 20% but at least 5% inhibition of the RC kinase activity at 1 μM; and D represents no greater than 5% inhibition of the RC kinase activity at 1 μM.
On the technique in general: Time-resolved FRET reads energy transfer from a long-lived donor to a nearby acceptor.
Take `N#Cc1c(Nc2cccc(Cl)c2)n[nH]c1/N=C/c1ccc(-c2ccccn2)s1` [Compound A2]: the inhibition at 1 µM is 20 to 50%.

`COc1ccc(/C=N/c2[nH]nc(Nc3ccccc3)c2C#N)cc1` [Compound A6]: the “Activity (inhibition of the RC kinase activity)” value is “B (no greater than 50% but at least 20% inhibition of the RC kinase activity at 1 μM)”.

As for `COc1cc(/C=N/c2[nH]nc(Nc3cccc(Cl)c3)c2C#N)ccc1O` [Compound A17], the “Activity (inhibition of the RC kinase activity)” value is “B (no greater than 50% but at least 20% inhibition of the RC kinase activity at 1 μM)”.

As for `N#Cc1c(Nc2ccccc2)n[nH]c1/N=C/c1ccc(C(F)(F)F)cc1` [Compound A18], the “Activity (inhibition of the RC kinase activity)” value is “C (no greater than 20% but at least 5% inhibition of the RC kinase activity at 1 μM)”.

`COc1cccc(/C=N/c2[nH]nc(Nc3cccc(Cl)c3)c2C#N)c1` [Compound A24]: the “Activity (inhibition of the RC kinase activity)” value is given as “D (no greater than 5% inhibition of the RC kinase activity at 1 μM)”.

Turning to `N#Cc1c(Nc2cccc(Cl)c2)n[nH]c1/N=C/c1ccc[nH]1` [Compound A27], the “Activity (inhibition of the RC kinase activity)” value was “C (no greater than 20% but at least 5% inhibition of the RC kinase activity at 1 μM)”.

Consider `N#Cc1c(Nc2ccccc2)n[nH]c1/N=C/c1ccc[nH]1` [Compound A28], for which the inhibition at 1 µM lay within 5 to 20%.

Take `N#Cc1c(Nc2ccc(Cl)cc2)n[nH]c1/N=C/c1ccc[nH]1` [Compound A39]: the “Activity (inhibition of the RC kinase activity)” value was “D (no greater than 5% inhibition of the RC kinase activity at 1 μM)”.

As to `COc1ccc(Nc2n[nH]c(/N=C/c3ccc(Cl)cc3)c2C#N)cc1` [Compound A44], the “Activity (inhibition of the RC kinase activity)” value is on record as “D (no greater than 5% inhibition of the RC kinase activity at 1 μM)”.

For the compound `COc1ccc(Nc2n[nH]c(/N=C/c3ccccc3)c2C#N)cc1` [Compound A45], the “Activity (inhibition of the RC kinase activity)” value is given as “D (no greater than 5% inhibition of the RC kinase activity at 1 μM)”.

In the case of `N#Cc1c(NC2CCCCC2)n[nH]c1/N=C/c1ccc(O)cc1` [Compound A49, 3-(cyclohexylamino)-5-((4-hydroxybenzylidene)amino)-1H-pyrazole-4-carbonitrile], the inhibition at 1 µM is no more than 5%.

As for `COc1ccc(/C=N/c2[nH]nc(NC3CCCCC3)c2C#N)cc1` [Compound A50], the “Activity (inhibition of the RC kinase activity)” value is “D (no greater than 5% inhibition of the RC kinase activity at 1 μM)”.

As to `N#Cc1c(NC2CCCCC2)n[nH]c1/N=C/c1ccccc1` [Compound A51], the “Activity (inhibition of the RC kinase activity)” value is “D (no greater than 5% inhibition of the RC kinase activity at 1 μM)”.

For `Cc1cc(C)cc(Nc2n[nH]c(/N=C/c3ccc(O)cc3)c2C#N)c1` [Compound A55], the inhibition at 1 µM fell in the range of 5 to 20%.

`N#Cc1c(Nc2cc(Cl)cc(Cl)c2)n[nH]c1/N=C/c1ccc(O)cc1` [Compound A56]: the inhibition at 1 µM is 5 to 20%.

Take `CC(C)(C)c1ccc(Nc2[nH]nc(N=Cc3ccc(O)cc3)c2C#N)cc1` [Compound A57, 5-((4-(tert-butyl)phenyl)amino)-3-((4-hydroxybenzylidene)amino)-1H-pyrazole-4-carbonitrile]: the inhibition at 1 µM lay within 5 to 20%.

Turning to `N#Cc1c(Nc2ccc(Cl)c(Cl)c2)n[nH]c1/N=C/c1ccc(O)cc1O` [Compound A59], the inhibition at 1 µM is no more than 5%.

Take `Cn1nc(C(F)(F)F)c(/C=N/c2[nH]nc(Nc3cccc(Cl)c3)c2C#N)c1Cl` [Compound A69]: the “Activity (inhibition of the RC kinase activity)” value was “C (no greater than 20% but at least 5% inhibition of the RC kinase activity at 1 μM)”.

For `N#Cc1c(Nc2cccc(Cl)c2)n[nH]c1/N=C/c1nc(-c2ccccc2)[nH]c1Cl` [Compound A72], the “Activity (inhibition of the RC kinase activity)” value is given as “B (no greater than 50% but at least 20% inhibition of the RC kinase activity at 1 μM)”.

On to `N#Cc1c(Nc2cccc(Cl)c2)n[nH]c1/N=C/c1ccc(-c2ccc(Cl)cc2)o1` [Compound A73], for which the “Activity (inhibition of the RC kinase activity)” value is recorded as “C (no greater than 20% but at least 5% inhibition of the RC kinase activity at 1 μM)”.

`CN1CCN(c2ccc(/C=N/c3[nH]nc(Nc4cccc(Cl)c4)c3C#N)cc2)CC1` [Compound A74]: the “Activity (inhibition of the RC kinase activity)” value was “C (no greater than 20% but at least 5% inhibition of the RC kinase activity at 1 μM)”.

As for `Cn1c(Cl)c(/C=N/c2[nH]nc(Nc3cccc(Cl)c3)c2C#N)c2ccccc21` [Compound A78], the “Activity (inhibition of the RC kinase activity)” value was “C (no greater than 20% but at least 5% inhibition of the RC kinase activity at 1 μM)”.

As for `COc1cc(/C=N/c2[nH]nc(Nc3cccc(Cl)c3)c2C#N)cc(O)c1OC` [Compound A85], the “Activity (inhibition of the RC kinase activity)” value was “C (no greater than 20% but at least 5% inhibition of the RC kinase activity at 1 μM)”.

For the compound `COc1ccc(/C=N/c2[nH]nc(Nc3cccc(Cl)c3)c2C#N)c(C)c1C` [Compound A89], the “Activity (inhibition of the RC kinase activity)” value is on record as “C (no greater than 20% but at least 5% inhibition of the RC kinase activity at 1 μM)”.

For `N#Cc1c(Nc2cccc(Cl)c2)n[nH]c1/N=C/c1c(O)cccc1Cl` [Compound A92], the “Activity (inhibition of the RC kinase activity)” value is listed as “D (no greater than 5% inhibition of the RC kinase activity at 1 μM)”.

For the compound `Cc1ncsc1/C=N/c1[nH]nc(Nc2cccc(Cl)c2)c1C#N` [Compound A104], the “Activity (inhibition of the RC kinase activity)” value was “D (no greater than 5% inhibition of the RC kinase activity at 1 μM)”.

Regarding `N#Cc1c(Nc2cccc(Cl)c2)n[nH]c1/N=C/c1cccs1` [Compound A105], the “Activity (inhibition of the RC kinase activity)” value is listed as “D (no greater than 5% inhibition of the RC kinase activity at 1 μM)”.

Take `NC(=O)c1c(Nc2ccccc2)n[nH]c1/N=C/c1ccc(O)cc1` [Compound B10]: the “Activity (inhibition of the RC kinase activity)” value is “A (at least 50% inhibition of the RC kinase activity at 1 μM)”.

Take `NC(=O)c1c(Nc2ccccc2)n[nH]c1/N=C/c1ccccc1` [Compound B11]: the “Activity (inhibition of the RC kinase activity)” value is listed as “A (at least 50% inhibition of the RC kinase activity at 1 μM)”.

In the case of `NC(=O)c1c(Nc2cccc(Cl)c2)n[nH]c1/N=C/c1ccc(C(F)(F)F)cc1` [Compound B16], the “Activity (inhibition of the RC kinase activity)” value is on record as “D (no greater than 5% inhibition of the RC kinase activity at 1 μM)”.

With `NC(=O)c1c(Nc2cccc(Cl)c2)n[nH]c1/N=C/c1ccc[nH]1` [Compound B17], the “Activity (inhibition of the RC kinase activity)” value was “B (no greater than 50% but at least 20% inhibition of the RC kinase activity at 1 μM)”.

Take `NC(=O)c1c(Nc2ccc(Cl)cc2)n[nH]c1/N=C/c1ccc(C(F)(F)F)cc1` [Compound B28]: the “Activity (inhibition of the RC kinase activity)” value is on record as “D (no greater than 5% inhibition of the RC kinase activity at 1 μM)”.

For the compound `NC(=O)c1c(Nc2cccc(Cl)c2)n[nH]c1/N=C/c1cc(F)cc2c1OCOC2` [Compound B29], the “Activity (inhibition of the RC kinase activity)” value is “D (no greater than 5% inhibition of the RC kinase activity at 1 μM)”.

`COc1cc(/C=N/c2[nH]nc(Nc3ccc(Cl)cc3)c2C(N)=O)ccc1O` [Compound B32]: the “Activity (inhibition of the RC kinase activity)” value is “A (at least 50% inhibition of the RC kinase activity at 1 μM)”.

Turning to `NC(=O)c1c(Nc2ccc(Cl)cc2)n[nH]c1/N=C/c1ccccc1OCC(=O)O` [Compound B37], the inhibition at 1 µM is no more than 5%.

On to `NC(=O)c1c(Nc2cccc(Cl)c2)n[nH]c1/N=C/c1cc(O)ccc1O` [Compound B38, 3-((3-chlorophenyl)amino)-5-((2,5-dihydroxybenzylidene)amino)-1H-pyrazole-4-carboxamide], for which the inhibition at 1 µM is no less than 50%.

On to `NC(=O)c1c(Nc2ccc([N+](=O)[O-])cc2)n[nH]c1/N=C/c1ccccc1` [Compound B39, (E)-5-(benzylideneamino)-3-((4-nitrophenyl)amino)-1H-pyrazole-4-carboxamide], for which the inhibition at 1 µM lay in the range of 5 to 20%.

As for `NC(=O)c1c(Nc2cccc(Cl)c2)n[nH]c1/N=C/c1ccc([N+](=O)[O-])c(O)c1` [Compound B45], the inhibition at 1 µM was 20 to 50%.

For the compound `COc1cccc(O)c1/C=N/c1[nH]nc(Nc2cccc(Cl)c2)c1C(N)=O` [Compound B48], the “Activity (inhibition of the RC kinase activity)” value is “C (no greater than 20% but at least 5% inhibition of the RC kinase activity at 1 μM)”.

Regarding `NC(=O)c1c(Nc2cccc(Cl)c2)n[nH]c1/N=C/c1cc([N+](=O)[O-])ccc1O` [Compound B51], the “Activity (inhibition of the RC kinase activity)” value was “C (no greater than 20% but at least 5% inhibition of the RC kinase activity at 1 μM)”.

As to `COc1cc(/C=N/c2[nH]nc(Nc3cccc(Cl)c3)c2C(N)=O)ccc1OCc1cnc(Cl)s1` [Compound B55], the inhibition at 1 µM lay in the range of 5 to 20%.

Still in this assay, the particulars now being: compound at 1 μM, 1 µM.
As to `N#Cc1c(Nc2cccc(Cl)c2)n[nH]c1/N=C/c1ccc(Oc2ncccn2)cc1` [Compound A77], the “Activity (inhibition of the RC kinase activity)” value is listed as “D (no greater than 5% inhibition of the RC kinase activity at 1 μM)”.
